What was measured:
[1] = biological target: CRBN-DDB1 (Homo sapiens, UniProt Q96SW2); experiment: Compound binding to CRBN by HTRF assay; settings: CRBN-DDB1 2.5 nM, Cy5-Thalidomide 100 nM, 30 min at ambient temperature; read-out: HTRF Class (Cereblon binding, HTRF IC50)
Procedure: Example 146: Compound Binding to CRBN by HTRF Assay
Compound activity was monitored in a Homogenous Time-Resolved Fluorescence (HTRF) assay using 1-[5-({2-[2-(2-{[2-(2,6-dioxopiperidin-3-yl)-1,3-dioxo-2,3-dihydro-1H-isoindol-4-yl]oxy}acetamido)ethoxy]ethyl}carbamoyl)pentyl]-3,3-dimethyl-2-[(1E,3E)-5-[(2E)-1,3,3-trimethyl-5-sulfo-2,3-dihydro-1H-indol-2-ylidene]penta-1,3-dien-1-yl]-3H-indol-1-ium-5-sulfonate as a fluorescent probe. Biochemical assays were conducted in Greiner white 384 well HiBase plates (Cat. No 784075-25) in 10 μL total volume. A one pot detection solution of CRBN-DDB1 (2.5 nM), Anti-His Terbium Cryptate Gold (1X, PerkinElmer Cat. #: 61HI2TLB), and Cy5-Thalidomide (100 nM, Tenova Cat.: T52461) was prepared in 20 mM HEPES, 20 mM NaCl, 0.2 mM TCEP, 0.2 mM EDTA, and 0.005% Tween20 was dispensed to each assay plate. Compounds were stored in dry, ambient temperatures at 10 mM. A 10-point, 1:3 dilution series was prepared from 10 mM stock concentrations in Echo-compatible LDV plates. 10 nL of each compound dilution series was dispensed into assays wells using an Echo 650 (Labcyte inc. USA). 10 nL of 10 mM Lenalidomide was transferred into the active-control wells for the assay and 10 nL of DMSO was transferred into the neutral-control wells. The assay was then allowed to incubate for 30 min at ambient temperature after transferring compound. Plate measurements were taken on a Pherastar FSX (BMG Labtech, Germany) using the HTRF Red filter (Ex. 337 nm, em1: 620 nm, em2: 665 nm) (Flashes: 50, Integration time: 60-400 us, Z-height: 10 mm, Ratio-multiplier: 10,000). The HTRF signal was then subsequently normalized to the neutral and active controls. Analysis and IC50 values were derived using KNIME analytics (KNIME Zurich) transformation and fitting within Collaborative Drug Discovery (Collaborative Drug Discovery USA). Ki was derived from the geometric mean of the IC50 values using the Cheng-Prustoff transformation.
(§1) In Table 2, each compound is assigned a class (HTRF class) indicating the ability for Cereblon binding by means of their HTRF IC50 values according to […]: A, B, C or D. According to the code, A represents an IC50 value of ≤100 nM, B represents an IC50 value>100 nM and ≤1000 nM, C represents an IC50 value>1000 nM. IF Class assigns each compound a code indicating the ability for GSPT1 degradation: A, B or C. According to the code, A represents a DC50 value of ≤30 nM, B represents a DC50 value>30 nM and ≤300 nM and C represents a DC50 value of >300 nM.

[2] = biological target: T1, GSPT1 (Homo sapiens, UniProt P15170+Q96SW2); experiment: Immunofluorescence assay for activity to degrade GSPT1 in CAL-51 cells; format: cell-based; settings: 6 h treatment, read-out: IF Class (GSPT1 degradation, DC50)
T1 construct: CAL-51 cells were purchased from DSMZ (cat. Number ACC302); host or cells: CAL-51
T1 sequence (P15170 whole entry): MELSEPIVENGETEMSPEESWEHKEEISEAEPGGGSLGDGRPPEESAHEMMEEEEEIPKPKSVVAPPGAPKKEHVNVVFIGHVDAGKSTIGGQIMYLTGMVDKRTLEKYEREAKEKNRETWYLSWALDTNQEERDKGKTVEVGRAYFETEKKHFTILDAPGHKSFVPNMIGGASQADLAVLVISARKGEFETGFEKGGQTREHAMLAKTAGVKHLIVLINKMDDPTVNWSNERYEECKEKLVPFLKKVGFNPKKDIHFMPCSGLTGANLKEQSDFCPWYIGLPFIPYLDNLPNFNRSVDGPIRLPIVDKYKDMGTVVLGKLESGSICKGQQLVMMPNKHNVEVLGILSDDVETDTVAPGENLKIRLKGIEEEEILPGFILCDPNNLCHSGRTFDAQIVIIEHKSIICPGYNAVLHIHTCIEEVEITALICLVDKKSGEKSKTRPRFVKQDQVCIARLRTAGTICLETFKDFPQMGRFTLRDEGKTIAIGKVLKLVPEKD
T1 sequence (Q96SW2 whole entry): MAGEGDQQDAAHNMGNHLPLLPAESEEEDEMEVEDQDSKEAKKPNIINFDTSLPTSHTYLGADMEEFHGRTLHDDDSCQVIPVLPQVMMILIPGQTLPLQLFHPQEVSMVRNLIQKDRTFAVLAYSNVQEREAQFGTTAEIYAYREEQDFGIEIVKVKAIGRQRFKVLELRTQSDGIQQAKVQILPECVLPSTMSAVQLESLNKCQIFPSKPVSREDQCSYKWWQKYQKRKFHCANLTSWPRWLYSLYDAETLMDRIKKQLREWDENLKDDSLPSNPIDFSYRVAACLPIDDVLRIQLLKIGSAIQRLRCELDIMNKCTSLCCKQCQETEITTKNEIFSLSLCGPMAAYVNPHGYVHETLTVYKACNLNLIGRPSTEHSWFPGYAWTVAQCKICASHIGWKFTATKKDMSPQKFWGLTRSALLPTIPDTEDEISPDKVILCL
T1 sequence (Q16531 2-1140 partner limits assumed): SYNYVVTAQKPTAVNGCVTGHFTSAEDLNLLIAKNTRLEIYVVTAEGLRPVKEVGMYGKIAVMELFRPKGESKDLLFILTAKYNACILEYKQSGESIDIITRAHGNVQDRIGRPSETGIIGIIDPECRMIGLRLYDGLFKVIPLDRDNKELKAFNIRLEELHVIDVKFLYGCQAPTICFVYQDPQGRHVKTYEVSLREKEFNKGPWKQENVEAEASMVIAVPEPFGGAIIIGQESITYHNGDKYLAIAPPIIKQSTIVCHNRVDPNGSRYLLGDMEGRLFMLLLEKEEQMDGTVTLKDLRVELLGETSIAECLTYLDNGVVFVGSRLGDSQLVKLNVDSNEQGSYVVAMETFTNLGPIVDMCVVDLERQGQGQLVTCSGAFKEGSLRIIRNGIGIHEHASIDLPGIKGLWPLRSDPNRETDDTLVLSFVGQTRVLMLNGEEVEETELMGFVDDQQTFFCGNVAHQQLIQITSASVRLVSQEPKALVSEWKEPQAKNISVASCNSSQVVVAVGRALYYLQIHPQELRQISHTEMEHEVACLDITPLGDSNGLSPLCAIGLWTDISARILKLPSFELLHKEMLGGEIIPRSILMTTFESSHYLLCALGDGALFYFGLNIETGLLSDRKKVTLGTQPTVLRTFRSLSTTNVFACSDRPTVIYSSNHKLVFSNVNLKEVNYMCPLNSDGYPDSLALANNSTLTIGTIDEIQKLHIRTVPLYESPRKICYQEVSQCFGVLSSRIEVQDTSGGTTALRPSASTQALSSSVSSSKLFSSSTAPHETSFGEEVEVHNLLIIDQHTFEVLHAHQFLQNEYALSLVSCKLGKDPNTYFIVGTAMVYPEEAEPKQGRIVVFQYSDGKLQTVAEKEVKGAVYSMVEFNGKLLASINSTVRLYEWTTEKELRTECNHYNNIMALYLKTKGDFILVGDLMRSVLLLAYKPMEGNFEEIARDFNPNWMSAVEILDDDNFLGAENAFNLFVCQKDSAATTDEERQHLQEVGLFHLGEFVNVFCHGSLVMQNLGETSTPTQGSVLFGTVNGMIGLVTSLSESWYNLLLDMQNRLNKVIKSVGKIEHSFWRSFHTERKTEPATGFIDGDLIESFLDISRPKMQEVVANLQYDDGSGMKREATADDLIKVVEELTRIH
Procedure: Example 147: Compound Activity by Immunofluorescence Assay
The representative compounds were tested in an immunofluorescence assay for their activity to degrade GSPT1. CAL-51 cells were purchased from DSMZ (cat. Number ACC302), sub-cultured in 90% Dulbecco's MEM (4.5 g/L glucose, Gibco 11965)+10% heat inactivated FBS (BioConcept, 2-01F136I) and incubated at 37° C., 5% CO2. For the assay imaging microtiter plate Cell Carrier 96 Ultra (Perkin Elmer 6055302) were pre-coated with Fibronectin (Sigma F085, 30 μL at 0.2 μg/mL) in PBS (100 μL, Gibco 14190) for 45 min at room temperature, rinsed with PBS and CAL-51 cells (30K cells/well) were plated and let to adhere overnight. Cells were treated with compounds typically using a serial dilution ranging from 30 μM to 0.1 nM for 6 h. Compounds were stored at 10 mM DMSO stocks. Vehicle (DMSO), positive (CC-885, 10 μM) and rescue controls (positive control plus 0.2 μM bortezomib) were also included at this stage. Cells were subsequently rinsed with PBS and fixed in 10% Formalin solution (50 μL, Sigma HT5011)) for 20 mins at room temperature. Following three consecutive PBS washes (100 μL), cells were permeabilized in 0.1% Triton X-100 in PBS (Sigma 93443, 50 μL) for 15 min. at room temperature. Following three further PBS washes, 50 μL blocking buffer (1% BSA, Sigma A4503, in PBS) was added for 45 min for signal-to noise reduction. Primary antibody (human GSPT1, Sigma HPA052488) was diluted in blocking buffer (dil.1/300, 35 μL/well) and incubated with the cells overnight at 4° C. After three PBS washes, Alexa-fluor 488 coupled secondary antibodies (Invitrogen, A32731, dil. 1/1000), Alexa-fluor 647-Phalloidin (Invitrogen, A22287, dil. 1/200) and DAPI (Thermo, #62248, dil. 1/1000) were diluted in blocking buffer and incubated with the samples for 2 h at room temperature. After three final PBS washes, samples were conserved in 100 μL PBS in the dark, until measurement. Image acquisition was performed on the Operetta High-Content Imager (Perkin-Elmer). Fluorescence intensity of […] (GSPT1), Alexa-Fluor 647 (Actin) and DAPI (Nucleus) were measured. For the determination of GSPT1 DC50 values, a custom algorithm implemented in the PerkinElmer image analysis software Harmony-Acapella® was developed. After user-defined setting of adjustment parameters, the analysis was run identically without human intervention for all image fields. DAPI staining of the nuclei was used to determine the location of cells using standard nuclei detection modules. Segmentation artifacts were removed by threshold-based filters for area, roundness and intensity. The outline of the cells was determined analogously from the sum of the normalized, smoothed DAPI and Actin channel, starting from each nucleus. The Alexa-Fluor 488 (GSPT1) signal intensity in each cell was finally measured, in order to obtain a Mean intensity per cell. GSPT1 degradation (DC50) was calculated after normalization to controls and data import in CDD vault Database, using non-linear regression.
as §1

CRBN-DDB1, sequence (Q96SW2 whole entry): as the sequence (Q96SW2 whole entry) above
CRBN-DDB1, sequence (Q16531 whole entry partner): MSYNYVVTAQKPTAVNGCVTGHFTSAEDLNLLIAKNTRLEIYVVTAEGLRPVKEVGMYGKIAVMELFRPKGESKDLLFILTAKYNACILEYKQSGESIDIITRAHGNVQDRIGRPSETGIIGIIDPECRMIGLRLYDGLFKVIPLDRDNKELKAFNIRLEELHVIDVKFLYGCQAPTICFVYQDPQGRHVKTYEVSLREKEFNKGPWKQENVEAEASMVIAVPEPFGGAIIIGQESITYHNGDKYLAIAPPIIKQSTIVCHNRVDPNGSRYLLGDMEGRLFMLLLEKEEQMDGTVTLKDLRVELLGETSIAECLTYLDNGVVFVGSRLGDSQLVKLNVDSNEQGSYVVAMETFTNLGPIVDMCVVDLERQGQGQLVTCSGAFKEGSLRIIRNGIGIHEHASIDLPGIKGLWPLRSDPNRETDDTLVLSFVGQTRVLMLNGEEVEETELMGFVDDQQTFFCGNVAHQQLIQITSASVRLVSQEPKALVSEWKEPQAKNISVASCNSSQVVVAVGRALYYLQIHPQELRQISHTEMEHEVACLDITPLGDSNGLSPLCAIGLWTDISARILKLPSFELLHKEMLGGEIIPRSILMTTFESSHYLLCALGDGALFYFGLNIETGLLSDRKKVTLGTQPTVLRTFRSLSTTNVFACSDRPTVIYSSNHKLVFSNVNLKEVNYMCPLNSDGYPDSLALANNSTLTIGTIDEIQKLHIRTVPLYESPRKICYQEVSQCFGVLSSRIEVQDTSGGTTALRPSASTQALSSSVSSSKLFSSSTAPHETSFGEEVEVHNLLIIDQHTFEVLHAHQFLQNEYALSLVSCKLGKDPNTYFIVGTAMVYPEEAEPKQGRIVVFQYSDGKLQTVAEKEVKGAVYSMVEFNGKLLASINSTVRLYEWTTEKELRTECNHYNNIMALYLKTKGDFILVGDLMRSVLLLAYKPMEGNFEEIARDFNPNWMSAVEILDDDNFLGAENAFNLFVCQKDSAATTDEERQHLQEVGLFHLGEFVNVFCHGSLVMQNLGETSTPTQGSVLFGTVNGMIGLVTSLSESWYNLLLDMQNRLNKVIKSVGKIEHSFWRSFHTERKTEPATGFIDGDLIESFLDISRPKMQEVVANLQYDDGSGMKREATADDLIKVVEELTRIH

Compound | IC50 [1] [nM] | DC50 [2] [nM]
Cc1ccccc1-c1ccc(NC(=O)NC2CN(c3cc(F)c(C4CCC(=O)NC4=O)c(F)c3)C2)cn1 (stereo not drawn) [Compound 23, 1-(1-(4-(2,6-dioxopiperidin-3-yl)-3,5-difluorophenyl)azetidin-3-yl)-3-(6-(o-tolyl)pyridin-3-yl)urea] | ≤ 100 | ≤ 30
Cc1c(Cl)cc(NC(=O)NC2CN(c3cc(F)c(C4CCC(=O)NC4=O)c(F)c3)C2)cc1CN1CCOCC1 (stereo not drawn) [Compound 24, 1-(3-chloro-4-methyl-5-(morpholinomethyl)phenyl)-3-(1-(4-(2,6-dioxopiperidin-3-yl)-3,5-difluorophenyl)azetidin-3-yl) urea] | ≤ 100 | ≤ 30
O=C1CCC(c2c(F)cc(N3CC(NC(=O)Nc4cc(-c5ccccc5)ccn4)C3)cc2F)C(=O)N1 (stereo not drawn) [Compound 25, 1-(1-(4-(2,6-dioxopiperidin-3-yl)-3,5-difluorophenyl)azetidin-3-yl)-3-(4-phenylpyridin-2-yl) urea] | ≤ 100 | > 300
O=C1CCC(c2c(F)cc(N3CC(NC(=O)Nc4ccc(-c5ccccn5)cc4)C3)cc2F)C(=O)N1 (stereo not drawn) [Compound 26, 1-(1-(4-(2,6-dioxopiperidin-3-yl)-3,5-difluorophenyl)azetidin-3-yl)-3-(4-(pyridin-2-yl)phenyl)urea] | ≤ 100 | ≤ 30
O=C1CCC(c2c(F)cc(N3CC(NC(=O)Nc4cc(OC(F)(F)F)ccn4)C3)cc2F)C(=O)N1 (stereo not drawn) [Compound 27, 1-(1-(4-(2,6-dioxopiperidin-3-yl)-3,5-difluorophenyl)azetidin-3-yl)-3-(4-(trifluoromethoxy)pyridin-2-yl)urea] | ≤ 100 | 30 to 300
O=C1CCC(c2c(F)cc(N3CC(NC(=O)Nc4cc(Cl)cc(OC(F)F)c4)C3)cc2F)C(=O)N1 (stereo not drawn) [Compound 28, 1-(3-chloro-5-(difluoromethoxy)phenyl)-3-(1-(4-(2,6-dioxopiperidin-3-yl)-3,5-difluorophenyl)azetidin-3-yl)urea] | 100 to 1000 | 30 to 300
Cc1ccc(NC(=O)OC2CN(c3cc(Cl)c(C4CCC(=O)NC4=O)cc3F)C2)cc1Cl (stereo not drawn) [Compound 29] | > 1000 | 30 to 300
C[C@@H]1CCCN1c1ccc(NC(=O)NC2CN(c3cc(F)c(C4CCC(=O)NC4=O)c(F)c3)C2)cn1 (stereo partly drawn) [Compound 30, 1-(1-(4-(2,6-dioxopiperidin-3-yl)-3,5-difluorophenyl)azetidin-3-yl)-3-(6-((R)-2-methylpyrrolidin-1-yl)pyridin-3-yl)urea] | ≤ 100 | ≤ 30
Cc1cc(C)cc(NC(=O)OC2CN(c3ccc(C4CCC(=O)NC4=O)c(Cl)c3)C2)c1 (stereo not drawn) [Compound 31, 1-(3-chloro-4-(2,6-dioxopiperidin-3-yl)phenyl)azetidin-3-yl (3,5-dimethylphenyl)carbamate] | 100 to 1000 | > 300
O=C1CCC(c2c(F)cc(N3CC(OC(=O)Nc4ccc(F)c(OC(F)F)c4)C3)cc2F)C(=O)N1 (stereo not drawn) [Compound 32, 1-(4-(2,6-dioxopiperidin-3-yl)-3,5-difluorophenyl)azetidin-3-yl (3-(difluoromethoxy)-4-fluorophenyl)carbamate] | 100 to 1000 | ≤ 30
O=C1CCC(c2c(F)cc(N3CC(OC(=O)Nc4cc(OC(F)(F)F)ccc4F)C3)cc2F)C(=O)N1 (stereo not drawn) [Compound 33, 1-(4-(2,6-dioxopiperidin-3-yl)-3,5-difluorophenyl)azetidin-3-yl (2-fluoro-5-(trifluoromethoxy)phenyl)carbamate] | 100 to 1000 | ≤ 30
O=C1CCC(c2c(F)cc(N3CC(OC(=O)Nc4cc(F)cc(Cl)c4)C3)cc2F)C(=O)N1 (stereo not drawn) [Compound 34, 1-(4-(2,6-dioxopiperidin-3-yl)-3,5-difluorophenyl)azetidin-3-yl(3-chloro-5-fluorophenyl)carbamate] | 100 to 1000 | 30 to 300
Cc1cc(C)cc(NC(=O)NC2CN(c3ccc(C4CCC(=O)NC4=O)c(Cl)c3)C2)c1 (stereo not drawn) [Compound 35, 1-(1-(3-chloro-4-(2,6-dioxopiperidin-3-yl)phenyl)azetidin-3-yl)-3-(3,5-dimethylphenyl)urea] | 100 to 1000 | > 300
O=C1CCC(c2ccc(N3CC(OC(=O)Nc4cccc(OC(F)(F)F)c4)C3)cc2Cl)C(=O)N1 (stereo not drawn) [Compound 36, 1-(3-chloro-4-(2,6-dioxopiperidin-3-yl)phenyl)azetidin-3-yl (3-(trifluoromethoxy)phenyl)carbamate] | > 1000 | 30 to 300
O=C1CCC(c2c(F)cc(N3CC(OC(=O)Nc4cccc(OC5CC5)c4)C3)cc2F)C(=O)N1 (stereo not drawn) [Compound 37, 1-(4-(2,6-dioxopiperidin-3-yl)-3,5-difluorophenyl)azetidin-3-yl (3-cyclopropoxyphenyl)carbamate] | 100 to 1000 | ≤ 30
O=C1CCC(c2c(F)cc(N3CC(OC(=O)Nc4cc(Cl)cc(OC(F)F)c4)C3)cc2F)C(=O)N1 (stereo not drawn) [Compound 38, 1-(4-(2,6-dioxopiperidin-3-yl)-3,5-difluorophenyl)azetidin-3-yl(3-chloro-5-(difluoromethoxy)phenyl) carbamate] | 100 to 1000 | 30 to 300
Cc1cc(NC(=O)OC2CN(c3cc(F)c(C4CCC(=O)NC4=O)c(F)c3)C2)c(F)cc1Cl (stereo not drawn) [Compound 39, 1-(4-(2,6-dioxopiperidin-3-yl)-3,5-difluorophenyl)azetidin-3-yl(4-chloro-2-fluoro-5-methylphenyl)carbamate] | 100 to 1000 | ≤ 30
CC1(c2ccc(NC(=O)NC3CN(c4cc(F)c(C5CCC(=O)NC5=O)c(F)c4)C3)cn2)CC1 (stereo not drawn) [Compound 40, 1-(1-(4-(2,6-dioxopiperidin-3-yl)-3,5-difluorophenyl)azetidin-3-yl)-3-(6-(1-methylcyclopropyl)pyridin-3-yl)urea] | 100 to 1000 | ≤ 30

Reference: US20240308976A1, “COMPOUNDS THAT MEDIATE PROTEIN DEGRADATION AND USES THEREOF” (Monte Rosa Therapeutics, Inc., priority 2021, published 2024)
